Reference: paper PMC9569954, “The Antidepressant-like Activity, Effects on Recognition Memory Deficits, Bioavailability, and Safety after Chronic Administration of New Dual-Acting Small Compounds Targeting Neuropsychiatric Symptoms in Dementia” (International Journal of Molecular Sciences, 2022)
Read-outs that look alike come from different tables or passages of the source.

Key:
[1] = Pharmacokinetics and brain uptake after i.v. and i.g. administration; assay type: in vivo, male Wistar rats; conditions: rat; for half-life / Cmax / MRT / AUC(0-t) / C0 / clearance / bioavailability / Tmax / Kp / Vd: male, Wistar; for half-life: in vivo, elimination from body, route not stated; for bioavailability: i.g. 2 mg/kg vs i.v. 0.5 mg/kg, read-out: F (absolute bioavailability); for Kp: brain/plasma, read-out: Brain/Plasma ratio; for Vd: read-out: Vss
Text: The compounds investigated, namely, PQA-AZ4 and PQA-AZ6 (UPLC/MS purity > 95%), were synthesized at the Department of Medicinal Chemistry, Jagiellonian University Medical College (synthesis described in [10]); PQ-10, (6,7-dimethoxy-4-[(3R)-3-(2-quinoxalinyloxy)-1-pyrrolidinyl]-quinazoline, was obtained from Sigma-Aldrich (St. Louis, MO, USA). For the studies, the compounds were suspended in 1% aqueous solution of Tween 80, while (+)-MK-801 (hydrogen maleate, Sigma-Aldrich, St. Louis, MO, USA) was dissolved in distilled water. In the behavioral studies, PQA-AZ4, PQA-AZ6, and PQ-10 were injected intraperitoneally (i.p.) once a day (between 9:00 AM and 10:00 AM) for 21 consecutive days at the minimum active doses selected previously, based on acute treatment and assessment in behavioral tests at a volume of 2 mL/kg body weight. The control groups received 1% aqueous solution of Tween 80 (Sigma-Aldrich, St. Louis, MO, USA) in the same schedule. For the pharmacokinetic study, PQA-AZ4 and PQA-AZ6 dissolved in 20% captizol (Ligand, San Diego, CA, USA) were administered intravenously (i.v.) and intragastrically (i.g.) at a dose of 0.5 and 2 mg/kg, respectively, while ketamine (50 mg/kg, (hydrochloride, Biowet Puławy, Puławy, Poland)) and xylazine (8 mg/kg, hydrochloride, Biowet Puławy, Poland)) were injected i.p.
HPLC grade methanol, acetonitrile and reagent grade formic acid, hydrochloric acid, potassium dihydrogen phosphate, orthophosphoric acid, and sodium chloride were purchased from Merck (Darmstadt, Germany). Tissues (control blood and brain) were obtained from adult male Wistar rats anesthetized by i.p. injection of 50 mg/kg ketamine plus 8 mg/kg xylazine, and blood samples were collected in heparinized tubes from the heart. Blood samples were collected at 0 (predose), 15, 60, 240, and 1440 min after compound administration. The plasma was separated by centrifugation (1000× g, 10 min). Plasma and brain were stored at −80 °C pending analysis. The LC/ESI-MS/MS experiments were performed on a UPLC ACQUITY H-Class PLUS/Xevo TQD (Waters Corporation, Milford, MA, USA) triple-quadrupole mass spectrometer equipped with an electrospray (ESI) ionization interface. Data acquisition and processing were accomplished using MassLynx data collection and integration software. For the chromatographic and mass spectrometric conditions, and sample pretreatment, please see the Supplementary Materials.
Pharmacokinetic parameters were calculated by a noncompartmental approach from the average concentration values, using Phoenix WinNonlin software (Certara, Princeton, NJ 08540 USA). The first-order elimination rate constant (λz) was calculated by linear regression of log concentration versus time. The area under the mean plasma and brain concentration versus time curve (AUC0→t) was calculated from zero to the last concentration point using the linear trapezoidal rule:(1) AUC0→t=∑i=1nCi+Ci+1/2·(ti+1−ti) where Ci is the concentration of the compound.
The area under the first-moment curve (AUMC0→t) was estimated by calculation of the total area under the first-moment curve:(2) AUMC0→t=∑i=1n((ti·Ci+ti+1·Ci+1)/2)·(ti+1−ti) where ti is the […].
Mean residence time (MRT) was calculated as:(3) MRT=AUMC0→t/AUC0→t
Systemic clearance (Cl) was calculated as:(4) Cl=Div/AUC0→t
The volume of distribution at steady state (Vss) was calculated as:(5) Vss=Div⋅AUMC0→t/(AUC0→t )^2
The absolute bioavailability (F) of PQA-AZ4 and PQA-AZ6 after i.g. administration was calculated as:(6) F(%)=AUCi.g./AUCi.v.⋅Di.v./Di.g.⋅100 where Di.v. and Di.g. are i.v. and i.g. doses of the studied molecules, respectively.
1. Methods in pharmacokinetic studies
Instrumentation and operating conditions
The LC/ESI-MS/MS experiments were performed on a UPLC ACQUITY H-Class PLUS/Xevo
TQD (Waters Corporation, USA) triple-quadrupole mass spectrometer equipped with an electrospray
(ESI) ionization interface. Data acquisition and processing were accomplished using MassLynx data […]

[2] = MTT cytotoxicity on normal human dermal fibroblast cells; assay type: cell-based; conditions: NHDF cells (normal human dermal fibroblasts), highest tested concentration (75 μM), read-out: cell viability
Text: Alpha-MEM and the normal human dermal fibroblast cell line (NHDF) were obtained from Lonza (Lonza, Warsaw, Poland). Phosphate-buffered saline (PBS), fetal bovine serum (FBS), L-glutamine, and 100× antibiotic–antimycotic were from Cytogene (Zgierz, Poland). MTT (3-(4,5-dimethylthiazol-2-yl)-2,5-diphenyltetrazolium bromide) was from Sigma-Aldrich (Poznan, Poland) and DMSO was purchased from Archem (Kamieniec Wroclawski, Poland).
The viability of NHDF cells after treatment with PQA-AZ4 and PQA-AZ-6 was assayed using the previously described methodology. Briefly, 4.5 × 10^3 cells/well were seeded into a 96-multiwell plate and viability was evaluated using the MTT assay. Different volumes of each compound dissolved in DMSO (final concentrations 4.68, 9.37, 18.75, 37.5, and 75 μM, respectively), as well as DMSO itself as solvent control, were added to each well, mixed, and incubated for 48 h. Finally, the optical density was measured at 560 nm with a reference wavelength of 670 nm using an Asys UVM 340 Microplate Reader (Cambridge, UK). Results were expressed as the percentage of survival cells concerning the control (not treated cells).

[3] = brain, iv, 0.5 mg/kg, i.v. 0.5 mg/kg
[4] = brain, po, 2 mg/kg, i.g. 2 mg/kg
[5] = plasma, iv, 0.5 mg/kg, i.v. 0.5 mg/kg, plasma
[6] = plasma, po, 2 mg/kg, i.g. 2 mg/kg

| SMILES | half-life [1] | Cmax ([1]; iv, i.v. 0.5 mg/kg, brain) | MRT ([1]; iv, i.v. 0.5 mg/kg, brain) | AUC(0-t) ([1]; iv, i.v. 0.5 mg/kg, plasma) | C0 ([1]; iv, i.v. 0.5 mg/kg, plasma) | MRT ([1]; iv, i.v. 0.5 mg/kg, plasma) | clearance ([1]; iv, i.v. 0.5 mg/kg, plasma) | bioavailability ([1]; plasma, oral) | Cmax ([1]; po, i.g. 2 mg/kg, brain) | MRT ([1]; po, i.g. 2 mg/kg, brain) | AUC(0-t) ([1]; po, i.g. 2 mg/kg, plasma) | Cmax ([1]; po, i.g. 2 mg/kg, plasma) | MRT ([1]; po, i.g. 2 mg/kg, plasma) | Tmax [1, 3] | Tmax [1, 4] | Kp ([1]; iv, 0.5 mg/kg, i.v. 0.5 mg/kg) | Kp ([1]; po, 2 mg/kg, i.g. 2 mg/kg) | Vd [1, 5] | Tmax [1, 6] | Brain/Plasma ratio ([1]; i.g. 2 mg/kg) | further results |
| --- | --- | --- | --- | --- | --- | --- | --- | --- | --- | --- | --- | --- | --- | --- | --- | --- | --- | --- | --- | --- | --- |
| COc1cccc(N2CCN(CC3CCN(c4ncnc5cc(OC)c(OC)cc45)C3)CC2)c1 (stereo not shown) [PQA-AZ4, 6,7-Dimethoxy-4-(3-((4-(3-methoxyphenyl)piperazin-1-yl)methyl)pyrrolidin-1-yl)quinazoline] | ~1 h | 149 ng/g | 3.1 h | 714 ng·h/mL | 431 ng/mL | 0.958 h | 10.8 mL/min/kg | 8.29% | 71.4 ng/g | 3.58 h | 118 ng·h/mL | 46.7 ng/mL | 1.38 h | 0.25 h | 1 h | 0.9 | 5.7 | 0.8 L/kg | ≤ 1 h | 5.68 | bioavailability ([1]; plasma, po): 8.3%; AUC0→t ([1]; i.g. 2 mg/kg, brain): 40,314 ng·min/g; t0.5 ([1]; i.g. 2 mg/kg, brain): 214 min; t0.5 ([1]; i.g. 2 mg/kg, plasma): 92 min; AUC0→t ([1]; i.v. 0.5 mg/kg, brain): 40,806 ng·min/g; t0.5 ([1]; i.v. 0.5 mg/kg, brain): 220 min; t0.5 ([1]; i.v. 0.5 mg/kg, plasma): 67.3 min; viability at 48 h, 75 µM [2]: 19.9% |
| COc1cc2ncnc(N3CCC(CN4CCN(c5ccc(Cl)cc5)CC4)C3)c2cc1OC (stereo not shown) [PQA-AZ6, 4-(3-((4-(4-Chlorophenyl)piperazin-1-yl)methyl)pyrrolidin-1-yl)-6,7-dimethoxyquinazoline] | ~1 h | 113 ng/g | 7.4 h | 93.6 ng·h/mL | 102 ng/mL | 0.742 h | 85.2 mL/min/kg | 38.4% | 342 ng/g | 12 h | 144 ng·h/mL | 99.5 ng/mL | 1.11 h | 0.25 h | 0.25 h | 8.6 | 5.3 | ~4.7 L/kg | 0.25 h | 5.29 | AUC0→t ([1]; i.g. 2 mg/kg, brain): 45,623 ng·min/g; t0.5 ([1]; i.g. 2 mg/kg, brain): 1928 min; t0.5 ([1]; i.g. 2 mg/kg, plasma): 216.8 min; AUC0→t ([1]; i.v. 0.5 mg/kg, brain): 48,321 ng·min/g; t0.5 ([1]; i.v. 0.5 mg/kg, brain): 597 min; t0.5 ([1]; i.v. 0.5 mg/kg, plasma): 54.2 min; viability at 48 h, 75 µM [2]: 84% |
